From paper PMC11501026, “L-Arginine and asymmetric dimethylarginine (ADMA) transport across the mouse blood-brain and blood-CSF barriers: Evidence of saturable transport at both interfaces and CNS to blood efflux” (PLOS ONE, 2024)
Where “and” joins values, the source holds several entries; their conditions need not be identical. Equal values may be shown once. Where a name gives a salt, the structure may show the parent alone. Read-outs that look alike come from different tables or passages of the source.

How the values were obtained:
[1] = capillary depletion analysis after in situ brain perfusion; assay type: in vivo, mouse; design: [3H] ADMA and [14C] Sucrose uptake, homogenate / Difference (ADMA minus Sucrose), homogenate / [3H] ADMA and [14C] Sucrose uptake, supernatant / Difference (ADMA minus Sucrose), supernatant / uptake, homogenate / uptake, supernatant: unit not given here; conditions: 5ml/min; for Kp at 20 min, 62.5 nM / Kp at […] / Kp at 30 min, 62.5 nM / Kp at 10 min, 62.5 nM: male, BALB/c, mouse; for Kp at […]: 2.5 mins; for Kp at 30 min, 62.5 nM / Kp at 10 min, 62.5 nM: other: in situ brain perfusion
Experimental: The microvasculature within a sample of brain tissue can be separated from the brain parenchyma using capillary depletion analysis. Following perfusion, the remaining brain tissue after microdissection of the regions described above (typically 200–300 mg) underwent capillary depletion following a method modified for mouse. […]

CAT1 = conditions: HEK293 overexpressing CAT1; read-out: IC50, inhibition of CAT1-mediated transport of L-arginine; cited from earlier work
[2] = CONTROL, 10 mins, Balb/c ♂, individual mouse
[3] = [3H] ADMA + [14C] Sucrose, 30 mins, Balb/c ♂, individual mice
[4] = capillary depletion supernatant (brain parenchyma), Difference (ADMA minus Sucrose), supernatant, mean
[5] = capillary depletion supernatant (brain parenchyma), [3H] ADMA and [14C] Sucrose uptake, supernatant, mean
[6] = whole-brain homogenate (capillary depletion), Difference (ADMA minus Sucrose), homogenate, mean
[7] = whole-brain homogenate (capillary depletion), [3H] ADMA and [14C] Sucrose uptake, homogenate, mean

Difference (ADMA minus Sucrose), homogenate [1, 2]: 0.2688 and 0.161 and 0.1425 and -0.07309 | [3H] ADMA and [14C] Sucrose uptake, supernatant [1, 2]: 0.1611 and 0.1028 and 0.139 and 0.1685 | Kp at 20 min, 62.5 nM ([1]; capillary depletion pellet (endothelial cell-enriched), Difference (ADMA minus Sucrose), pellet, mean): 0.0248 | Kp at 20 min, 62.5 nM ([1]; capillary depletion pellet (endothelial cell-enriched), [3H] ADMA and [14C] Sucrose uptake, pellet, mean): 0.0276 | Kp at […] ([1]; capillary depletion supernatant (brain parenchyma), Difference (ADMA minus Sucrose), supernatant, individual mouse): 0.0611 | Kp at […] [1, 4]: 0.0483 | Kp at 20 min, 62.5 nM [1, 4]: 0.14 | Kp at […] ([1]; capillary depletion supernatant (brain parenchyma), [3H] ADMA and [14C] Sucrose uptake, supernatant, individual mouse): 0.0737 | Kp at […] [1, 5]: 0.0581 | Kp at 20 min, 62.5 nM [1, 5]: 0.156 | Kp at 30 min, 62.5 nM ([1]; capillary depletion supernatant (brain parenchyma), Difference (ADMA minus Sucrose), supernatant, 30 mins, Balb/c ♂, mean): 0.0722 | Kp at 10 min, 62.5 nM ([1]; capillary depletion supernatant (brain parenchyma), Difference (ADMA minus Sucrose), supernatant, CONTROL, 10 mins, Balb/c ♂, mean): 0.0862 | Kp at 30 min, 62.5 nM ([1]; capillary depletion supernatant (brain parenchyma), [3H] ADMA + [14C] Sucrose, 30 mins, Balb/c ♂, mean, read-out: uptake, supernatant): 0.0993 | Kp at 10 min, 62.5 nM ([1]; capillary depletion supernatant (brain parenchyma), [3H] ADMA and [14C] Sucrose uptake, supernatant, CONTROL, 10 mins, Balb/c ♂, individual mouse): 0.119 | Kp at 10 min, 62.5 nM ([1]; capillary depletion supernatant (brain parenchyma), [3H] ADMA and [14C] Sucrose uptake, supernatant, CONTROL, 10 mins, Balb/c ♂, mean): 0.138 | Kp at […] ([1]; endothelial cell-enriched pellet (capillary depletion), Difference (ADMA minus Sucrose), pellet, individual mouse): 0.0108 | Kp at […] ([1]; endothelial cell-enriched pellet (capillary depletion), Difference (ADMA minus Sucrose), pellet, mean): 0.0108 | Kp at […] ([1]; endothelial cell-enriched pellet (capillary depletion), [3H] ADMA and [14C] Sucrose uptake, pellet, individual mouse): 0.0124 | Kp at […] ([1]; endothelial cell-enriched pellet (capillary depletion), [3H] ADMA and [14C] Sucrose uptake, pellet, mean): 0.0131 | Kp at 30 min, 62.5 nM ([1]; endothelial cell-enriched pellet (capillary depletion), Difference (ADMA minus Sucrose), pellet, 30 mins, Balb/c ♂, individual mice): 0.0153 | Kp at 30 min, 62.5 nM ([1]; endothelial cell-enriched pellet (capillary depletion), Difference (ADMA minus Sucrose), pellet, 30 mins, Balb/c ♂, mean): 0.012 | Kp at 10 min, 62.5 nM ([1]; endothelial cell-enriched pellet (capillary depletion), Difference (ADMA minus Sucrose), pellet, CONTROL, 10 mins, Balb/c ♂, mean): 0.00783 | Kp at 30 min, 62.5 nM ([1]; endothelial cell-enriched pellet (capillary depletion), [3H] ADMA + [14C] Sucrose, 30 mins, Balb/c ♂, individual mice, read-out: uptake, pellet): 0.0184 | Kp at 30 min, 62.5 nM ([1]; endothelial cell-enriched pellet (capillary depletion), [3H] ADMA + [14C] Sucrose, 30 mins, Balb/c ♂, mean, read-out: uptake, pellet): 0.0166 | Kp at 10 min, 62.5 nM ([1]; endothelial cell-enriched pellet (capillary depletion), [3H] ADMA and [14C] Sucrose uptake, pellet, CONTROL, 10 mins, Balb/c ♂, mean): 0.0527 | Kp at […] [1, 6]: 0.0793 | Kp at 20 min, 62.5 nM [1, 6]: 0.208 | Kp at […] [1, 7]: 0.0942 | Kp at 20 min, 62.5 nM [1, 7]: 0.234 | Kp at 30 min, 62.5 nM ([1]; whole-brain homogenate (capillary depletion), Difference (ADMA minus Sucrose), homogenate, 30 mins, Balb/c ♂, mean): 0.122 | Kp at 10 min, 62.5 nM ([1]; whole-brain homogenate (capillary depletion), Difference (ADMA minus Sucrose), homogenate, CONTROL, 10 mins, Balb/c ♂, individual mouse): 0.136 | Kp at 10 min, 62.5 nM ([1]; whole-brain homogenate (capillary depletion), Difference (ADMA minus Sucrose), homogenate, CONTROL, 10 mins, Balb/c ♂, mean): 0.127 | Kp at 30 min, 62.5 nM ([1]; whole-brain homogenate (capillary depletion), [3H] ADMA + [14C] Sucrose, 30 mins, Balb/c ♂, mean, read-out: uptake, homogenate): 0.156 | Kp at 10 min, 62.5 nM ([1]; whole-brain homogenate (capillary depletion), [3H] ADMA and [14C] Sucrose uptake, homogenate, CONTROL, 10 mins, Balb/c ♂, mean): 0.224
Structure (SMILES): CN(C)C(N)=NCCC[C@H](N)C(=O)O [ADMA, N^G,N^G-dimethylarginine dihydrochloride]
Difference (ADMA minus Sucrose), supernatant ([1]; 30 mins, Balb/c ♂, individual mice): 0.1199 and 0.1088 and 0.02622 and 0.04075 and 0.06521 | Difference (ADMA minus Sucrose), pellet [1, 2]: 0.02507 and 0.05085 and 0.009734 and 0.01917 and -0.0657 | Difference (ADMA minus Sucrose), supernatant [1, 2]: 0.07602 and 0.1167 and 0.08919 and 0.1193 and 0.02984 | [3H] ADMA and [14C] Sucrose uptake, homogenate [1, 2]: 0.1657 and 0.3684 and 0.1901 and 0.1639 and 0.2325 | [3H] ADMA and [14C] Sucrose uptake, pellet [1, 2]: 0.02884 and 0.07512 and 0.03345 and 0.03555 and 0.0904 | uptake, homogenate [1, 3]: 0.08533 and 0.3484 and 0.1186 and 0.07545 and 0.1502 | uptake, pellet [1, 3]: 0.01575 and 0.016 and 0.01288 and 0.01992 | uptake, supernatant [1, 3]: 0.135 and 0.1332 and 0.05406 and 0.0758 and 0.09832 | IC50 (CAT1): 758 µM
